Laboratory results taken from US6737383B1, “Herbicidal oxadiazolidines” (priority 1999, dated 2004).

Key:
[1] = system: winter barley; experiment: Test E winter barley; type: in vivo, Hordeum vulgare; details: Preemergence
[2] = system: purple nutsedge; experiment: Test D purple nutsedge; type: in vivo, Cyperus rotundus; details: Preemergence, 0 to 100 scale
Summary of the method: (§1)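 Seeds were sown in greenhouse pots, one species per pot or compartment. Compounds were in a non-phytotoxic solvent mixture with surfactant; preemergence applications went on the sandy loam surface within one day of planting. Injury was rated visually after 14 to 21 days, 0 (none) to 100 (complete control).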

[3] = system: Alexandergrass; experiment: Test D Alexandergrass; type: in vivo, Brachiaria plantaginea; details: Preemergence, 0 to 100 scale
Summary of the method: as §1

[4] = system: winter wheat; experiment: Test E winter wheat; type: in vivo, Triticum aestivum; details: Postemergence
Summary of the method: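 Plants were grown under normal greenhouse practice; for postemergence, in sandy loam soil mixed 60:40 with potting mix, treated at the 1- to 4-leaf stage. The compound was in a non-phytotoxic solvent carrying a surfactant. After roughly 21 to 28 days plants were scored visually against untreated plants.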

[5] = system: morningglory; experiment: Test B pre/postemergence morningglory; type: in vivo, Ipomoea hederacea
Summary of the method: (§2)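 Herbicidal effect was estimated by eye on a ten-point control scale after plants spent twelve to sixteen days in a greenhouse following soil or foliar treatment. Foliar sprays targeted plants at one to four leaves; all doses were formulated in a non-phytotoxic solvent with surfactant.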

[6] = system: winter wheat; experiment: Test E winter wheat; type: in vivo, Triticum aestivum; details: Preemergence
[7] = system: tall mallow; experiment: Test D tall mallow; type: in vivo, Malva sylvestris; details: Preemergence, 0 to 100 scale
Summary of the method: as §1

[8] = system: goosegrass; experiment: Test D goosegrass; type: in vivo, Eleusine indica; details: Preemergence, 0 to 100 scale
Summary of the method: as §1

[9] = system: Italian ryegrass; experiment: Test E Italian ryegrass; type: in vivo, Lolium multiflorum; details: Preemergence
[10] = system: bamyardgrass; experiment: Test B flood test barnyardgrass; type: in vivo, Echinochloa crus-galli
Summary of the method: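 Each value is a visual injury score relative to controls, with 10 meaning complete control and 0 no effect. Evaluation took place twelve to sixteen days after the 2-leaf-stage plants were treated and kept in the greenhouse.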

[11] = system: cocklebur; experiment: Test B pre/postemergence cocklebur; type: in vivo, Xanthium strumarium
Summary of the method: as §2

[12] = system: giant foxtail; experiment: Test B pre/postemergence giant foxtail; type: in vivo, Setaria faberii
Summary of the method: as §2

[13] = system: green foxtail; experiment: Test E green foxtail; type: in vivo, Setaria viridis; details: Preemergence
[14] = system: wild oat; experiment: Test E wild oat; type: in vivo, Avena fatua; details: Preemergence, 0 to 100 scale where 0 is no effect and 100 is complete control
[15] = system: blackgrass; experiment: Test E blackgrass; type: in vivo, Alopecurus myosuroides; details: Preemergence
[16] = Rate 500 g/ha, 0 to 100 scale where 0 is no effect and 100 is complete control
[17] = Rate 1000 g/ha, 0 to 100 scale where 0 is no effect and 100 is complete control
[18] = Rate 16 g/ha, 0 no injury, 100 complete control
[19] = Rate 32 g/ha, 0 no injury, 100 complete control
[20] = Rate 64 g/ha, 0 no injury, 100 complete control
[21] = Rate 125 g/ha, 0 no injury, 100 complete control
[22] = Postemergence, Rate 62 g/ha, scale 0 to 10, 0 is no effect, 10 is complete control
[23] = Postemergence, Rate 250 g/ha, scale 0 to 10, 0 no effect, 10 complete control
[24] = Preemergence, Rate 62 g/ha, scale 0 to 10, 0 is no effect, 10 is complete control
[25] = Preemergence, Rate 125 g/ha, scale 0 to 10 (0 no effect, 10 complete control)
[26] = Preemergence, Rate 250 g/ha, scale of 0 to 10 where 0 is no effect and 10 is complete control
[27] = Preemergence, Rate 500 g/ha, scale 0 (no effect) to 10 (complete control)
[28] = Rate 125 g/ha, Postemergence, scale 0 to 10, 0 no effect, 10 complete control
[29] = Rate 500 g/ha, Postemergence, 0 to 10 scale (0 no effect, 10 complete control)

**Q.** For `Cc1cccc(C)c1-n1c(=O)on(C(=O)N(c2ccccc2)C(C)C)c1=O` [Compound 46], which “Plant response rating, Barley (winter)” value ([1]; Rate 250 g/ha, 0 to 100 scale) is on record?
**A.** The value was 30.

**Q.** And the “Plant response rating, Barley (winter)” value [1, 16]?
**A.** Its value is 40.

**Q.** And the “Plant response rating, Barley (winter)” value [1, 17]?
**A.** Its value is 50.

**Q.** What about the “Plant response rating, Purple nutsedge” value [2, 18] of the same compound?
**A.** The value was 0.

**Q.** What about the “Plant response rating, Purple nutsedge” value [2, 19] of the same compound?
**A.** Its value is 0.

**Q.** What about the “Purple nutsedge plant response rating” value [2, 20] of the same compound?
**A.** Its value is 0.

**Q.** What about the “Purple nutsedge plant response rating” value [2, 21] of the same compound?
**A.** Its value is 0.

**Q.** What about the “Plant response rating, Purple nutsedge” value ([2]; Rate 250 g/ha) of the same compound?
**A.** Its value is 0.

**Q.** And the “Plant response rating, Purple nutsedge” value ([2]; Rate 500 g/ha)?
**A.** The value was 0.

**Q.** And the “Plant response rating, Alexandergrass” value [3, 18]?
**A.** The value was 0.

**Q.** And the “Plant response rating, Alexandergrass” value [3, 19]?
**A.** The value was 0.

**Q.** And the “Plant response rating, Alexandergrass” value [3, 20]?
**A.** The value was 40.

**Q.** What about the “Plant response rating, Alexandergrass” value [3, 21] of the same compound?
**A.** The value was 65.

**Q.** And the “Plant response rating, Alexandergrass” value ([3]; Rate 250 g/ha)?
**A.** Its value is 75.

**Q.** And the “Plant response rating, Alexandergrass” value ([3]; Rate 500 g/ha)?
**A.** The value was 80.

**Q.** And the “Plant response rating, Wheat (winter)” value ([4]; Rate 250 g/ha, 0 to 100 scale (0 no effect, 100 complete control))?
**A.** The value was 60.

**Q.** And the “Plant response rating, Wheat (winter)” value ([4]; Rate 1000 g/ha, 0 to 100 scale, 0 is no effect and 100 is complete control)?
**A.** The value was 70.

**Q.** And the “Plant response rating, Wheat (winter)” value ([4]; Rate 500 g/ha, 0 to 100 scale, 0 no effect, 100 complete control)?
**A.** The value was 70.

**Q.** And the “Morningglory plant response rating” value [5, 22]?
**A.** The value was 0.

**Q.** And the “Morningglory plant response rating” value [5, 23]?
**A.** The value was 1.

**Q.** What about the “Plant response rating, Morningglory” value [5, 24] of the same compound?
**A.** The value was 0.

**Q.** What about the “Plant response rating, Morningglory” value [5, 25] of the same compound?
**A.** The value was 0.

**Q.** And the “Plant response rating, Morningglory” value [5, 26]?
**A.** Its value is 0.

**Q.** What about the “Morningglory plant response rating” value [5, 27] of the same compound?
**A.** The value was 0.

**Q.** What about the “Morningglory plant response rating” value [5, 28] of the same compound?
**A.** Its value is 0.

**Q.** And the “Morningglory plant response rating” value [5, 29]?
**A.** The value was 2.

**Q.** What about the “Plant response rating, Wheat (winter)” value ([6]; Rate 250 g/ha, 0 to 100 scale) of the same compound?
**A.** Its value is 40.

**Q.** What about the “Plant response rating, Wheat (winter)” value [6, 16] of the same compound?
**A.** Its value is 70.

**Q.** And the “Plant response rating, Wheat (winter)” value [6, 17]?
**A.** Its value is 50.

**Q.** And the “Plant response rating, Tall Mallow” value [7, 18]?
**A.** The value was 0.

**Q.** What about the “Plant response rating, Tall Mallow” value [7, 19] of the same compound?
**A.** Its value is 0.

**Q.** And the “Tall Mallow plant response rating” value [7, 20]?
**A.** The value was 0.

**Q.** What about the “Tall Mallow plant response rating” value [7, 21] of the same compound?
**A.** Its value is 10.

**Q.** What about the “Plant response rating, Tall Mallow” value ([7]; Rate 250 g/ha) of the same compound?
**A.** The value was 10.

**Q.** What about the “Plant response rating, Tall Mallow” value ([7]; Rate 500 g/ha) of the same compound?
**A.** The value was 10.

**Q.** And the “Plant response rating, Goosegrass” value [8, 18]?
**A.** The value was 0.

**Q.** And the “Plant response rating, Goosegrass” value [8, 19]?
**A.** Its value is 20.

**Q.** And the “Plant response rating, Goosegrass” value [8, 20]?
**A.** The value was 75.

**Q.** And the “Plant response rating, Goosegrass” value [8, 21]?
**A.** Its value is 85.

**Q.** What about the “Plant response rating, Goosegrass” value ([8]; Rate 250 g/ha) of the same compound?
**A.** The value was 98.

**Q.** What about the “Plant response rating, Goosegrass” value ([8]; Rate 500 g/ha) of the same compound?
**A.** The value was 100.

**Q.** What about the “Plant response rating, I. Ryegrass” value ([9]; Rate 250 g/ha, 0 to 100 scale) of the same compound?
**A.** Its value is 50.

**Q.** And the “Plant response rating, I. Ryegrass” value [9, 16]?
**A.** Its value is 65.

**Q.** And the “Plant response rating, I. Ryegrass” value [9, 17]?
**A.** The value was 70.

**Q.** What about the “Barnyardgrass plant response rating” value [10, 22] of the same compound?
**A.** The value was 0.

**Q.** What about the “Barnyardgrass plant response rating” value ([10]; Rate 125 g/ha, Postemergence section (flood test species), scale 0 to 10, 0 no effect, 10 complete control) of the same compound?
**A.** Its value is 0.

**Q.** What about the “Barnyardgrass plant response rating” value ([10]; Rate 250 g/ha, headed Pre-emergence (flood test species), scale 0 to 10 (0 no effect, 10 complete control)) of the same compound?
**A.** The value was 0.

**Q.** And the “Barnyardgrass plant response rating” value ([10]; Rate 500 g/ha, Postemergence section of Table B, 0 to 10 scale (0 no effect, 10 complete control))?
**A.** The value was 0.

**Q.** What about the “Plant response rating, Barnyardgrass” value ([10]; Rate 500 g/ha, headed Pre-emergence (flood test species), scale 0 to 10 (0 no effect, 10 complete control)) of the same compound?
**A.** The value was 0.

**Q.** And the “Barnyardgrass plant response rating” value ([10]; Rate 1000 g/ha, Pre-emergence (as headed), scale 0 to 10)?
**A.** Its value is 0.

**Q.** What about the “Barnyardgrass plant response rating” value ([10]; Rate 2000 g/ha, Pre-emergence (as headed), scale 0 to 10, 0 no effect, 10 complete control) of the same compound?
**A.** The value was 9.

**Q.** What about the “Barnyardgrass plant response rating” value ([10]; flood test, listed under Postemergence, Rate 250 g/ha, scale 0 to 10, 0 no effect, 10 complete control) of the same compound?
**A.** The value was 0.

**Q.** What about the “Cocklebur plant response rating” value [11, 22] of the same compound?
**A.** The value was 0.

**Q.** And the “Cocklebur plant response rating” value [11, 23]?
**A.** The value was 1.

**Q.** And the “Plant response rating, Cocklebur” value [11, 24]?
**A.** Its value is 0.

**Q.** And the “Plant response rating, Cocklebur” value [11, 25]?
**A.** The value was 0.

**Q.** What about the “Plant response rating, Cocklebur” value [11, 26] of the same compound?
**A.** The value was 0.

**Q.** And the “Cocklebur plant response rating” value [11, 27]?
**A.** The value was 0.

**Q.** What about the “Cocklebur plant response rating” value [11, 28] of the same compound?
**A.** Its value is 1.

**Q.** What about the “Cocklebur plant response rating” value [11, 29] of the same compound?
**A.** The value was 2.

**Q.** And the “Giant foxtail plant response rating” value [12, 22]?
**A.** Its value is 0.

**Q.** What about the “Giant foxtail plant response rating” value [12, 23] of the same compound?
**A.** The value was 1.

**Q.** And the “Plant response rating, Giant foxtail” value [12, 24]?
**A.** The value was 10.

**Q.** What about the “Plant response rating, Giant foxtail” value [12, 25] of the same compound?
**A.** The value was 10.

**Q.** What about the “Plant response rating, Giant foxtail” value [12, 26] of the same compound?
**A.** Its value is 10.

**Q.** What about the “Giant foxtail plant response rating” value [12, 27] of the same compound?
**A.** The value was 10.

**Q.** What about the “Giant foxtail plant response rating” value [12, 28] of the same compound?
**A.** The value was 1.

**Q.** And the “Giant foxtail plant response rating” value [12, 29]?
**A.** Its value is 6.

**Q.** And the “Plant response rating, Green foxtail” value ([13]; Rate 250 g/ha, 0 to 100 scale)?
**A.** Its value is 60.

**Q.** What about the “Plant response rating, Green foxtail” value [13, 16] of the same compound?
**A.** The value was 85.

**Q.** And the “Plant response rating, Green foxtail” value [13, 17]?
**A.** The value was 80.

**Q.** And the “Plant response rating, Wild oat” value ([14]; Rate 500 g/ha)?
**A.** The value was 60.

**Q.** And the “Plant response rating, Wild oat” value ([14]; Rate 1000 g/ha)?
**A.** Its value is 70.

**Q.** What about the “Plant response rating, Blackgrass” value ([15]; Rate 250 g/ha, 0 to 100 scale) of the same compound?
**A.** Its value is 40.

**Q.** And the “Plant response rating, Blackgrass” value [15, 16]?
**A.** The value was 55.

**Q.** And the “Plant response rating, Blackgrass” value [15, 17]?
**A.** Its value is 70.
